US5980913A, “Peptides having immunomodulatory activity” (Biochem Pharma, Inc., priority 1994, dated 1999)
Where a SMILES comes first, the peptide text is derived from it. [ ]: non-standard residue; d: D form.

Experiments:
[1] = test system: T and B cells in spleen; assay: In vivo/ex vivo mitogenic proliferation of T and B cells (spleen); parameters: species or system C57BL/6 mice; settings: FIGS. 1A-1D
Experimental: (§1) C57BL.backslash.6 mice are treated with 0, 50, 100, 200, and 300 mg/kg of drug (in saline) for 4 consecutive days. Blood is taken by cardiac puncture on day 5, and the lymphocytes are isolated from spleen in the following manner:
(§2) The spleen is aseptically removed and mashed by pressing against a steel strainer with a rubber plunger. The cell suspension is separated from the clumps by letting them settle at the bottom of the tube. The cell suspension is then separated on a Lymphocyte M layer and the interface is recovered and resuspended in media.
2. Mitogenic proliferation of T and B cells (spleen)

[2] = test system: NK cells; assay: Functional in vivo/ex vivo NK cell assay, spleen cells, effector:target ratio 100:1; parameters: species or system mice; settings: for NK cell assay, % response of CTL: CTL = control
Experimental: as §1, §2
Important in immunosurveillance, NK cells are capable of lysing tumors, virus-infected or embryo-derived cells in vitro spontaneously without prior sensitization. Immunomodulators are evaluated using murine splenocytes and human peripheral blood mononuclear leukocytes.
Spleen cells were used to test for NK activity at a effector:target ratio of 100:1.

[3] = test system: P815 target cells; assay: Cytotoxic T lymphocytes (CTL) assay, 51Cr release, after 5 days mixed culture with drug; type: cell-based, C57BL/6 mice
Text: 1. Cytotoxic T Lymphocytes (CTL) Mixed Lymphocyte Reaction (MLR) and Mitogenic Response Assays
The protocols used are described in Hudson L., Haay F., Pratical immunology, 3rd edition, Blackwell, Scientific publications, Oxford 1989, p. 158-162, and p.447.
Lymphocytes were isolated from C57BL/6 mice and DBA/2 mice in accordance to techniques well known in the art. Cell concentration was adjusted to 10×10^6 cell/ml for each assay. The cells isolated from DBA/2 mice were irradiated with 3000 Rads.
In a 6 well plate, each well was set up with:
The cells were incubated for five days at 37° C. in 5% CO2, after which CTL and MLR assays were performed.
a) Cytotoxic T Lymphocytes (CTL)
P815 target cells were labelled with Cr^51 (0.1 mCi). After labelling, the cells were washed three times and resuspended to a concentration of 5×10^4 cells/ml in media. p T cells were then counted and diluted to obtain a concentration of 2.5×10^6 cells/ml, and then further diluted to obtain the following effector:target ratios:
100 μl of target cells+100 μl of CTLs were incubated for 4 hours. In parallel wells, 100 μl of target cells+100 μl of media were incubated for spntaneous release. After incubation, cells were centrifuged and 100 μl of supernatant was then counted using a gamma counter.
Results are expressed as % specific ^51 Cr release= [formula] where ER=experimental release, SR=spontaneous releaase, and
0 represents less than 20%, + represents 20-40%, ++ represents 40-60%, +++ represent 60-80%, and ++++ represents 80% and over.

[4] = Stability in Rat Whole Blood at 37° C., HPLC; type: in vitro ADME; parameters: half-life: dose or concentration left out as unconfirmed; settings: for HPLC AREA: rat whole blood 37° C.
Experimental: Eluent: A=CH3 CN B=Ammonium Acetate 0.01 M pH 6
Stock solution of the peptide is prepared at a concentration of 1.lmg/ml and dissolved in 10% CH3 CN/H2 O.
Rat Whole Blood (EDTA) is spiked with the peptide to give a concentration of […].
Same concentration of 10% CH3 CN/H2 O is also spiked to Rat Whole Blood (EDTA) as a control blank.
Aliquotes of […] are taken (in duplicate) of both spiked and control blanks at the following times:
FOR BLANK BLOOD: 0', 90'.
Each aliquoted samples are centrifuged at 4° C., 4400 rpm for 10 minutes.
3. Extraction Procedure: Liquid--Liquid Extraction
For each plasma sample, 100 μl of plasma are transferred to an eppendorf vial and 200 μl of acetonitrile added to it. The mixture is vortexed for 30 seconds and centrifuged at 4° C., 5 minutes 14000 rpm (Centra MP4R centrifuge, rotor # IEC 851). 200 μl of supernatant are transferred to another vial and evaporated to dryness with the Speed vac Plus (Savant SC-110A). The dried sample is reconstituted with […] of Mobile phase and an aliquote of this is injected to HPLC(high pressure liquid chromatography) for analysis.

In the case of `NCCCC[C@H](N)C(=O)N[C@@H](CC(N)=O)C(=O)N1CCC[C@H]1C(=O)N[C@@H](Cc1ccc(O)cc1)C(=O)O` [PEPTIDE #1, H-Lys-Asn-Pro-Tyr-OH] (H-KNPY-OH), the “activation of T and B cells in spleen in vivo/ex vivo (in words)” value [1] is reported as “activate T and B cells”, the “NK cell assay, % response of IL-2” value ([2]; 50 mg/kg) is reported as 48.34% and the “NK cell assay, Average” value ([2]; 50 mg/kg) is reported as 2.52. For the same molecule, the “NK cell assay, % response of CTL” value ([2]; 50 mg/kg) was 112.48%, the “NK cell assay, % response of IL-2” value ([2]; 100 mg/kg) was 69.48% and the “NK cell assay, Average” value ([2]; 100 mg/kg) was 3.63. For the same molecule, the “NK cell assay, % response of CTL” value ([2]; 100 mg/kg) was 161.66%, the “NK cell assay, % response of IL-2” value ([2]; 200 mg/kg) was 53.13% and the “NK cell assay, Average” value ([2]; 200 mg/kg) was 2.77. The “NK cell assay, % response of CTL” value ([2]; 200 mg/kg) was 123.63%, the “NK cell assay, % response of IL-2” value ([2]; 300 mg/kg) was 58.49% and the “NK cell assay, Average” value ([2]; 300 mg/kg) was 3.05. The “NK cell assay, % response of CTL” value ([2]; 300 mg/kg) was 136.11%, the “CTL, % augmentation compared to IL-2 (IL-2 is 100%)” value ([3]; 10^-7 M) was “++ (++ represents 40-60%)” and the “stimulation of CTL in vitro (in words)” value ([3]; summary of Table 1) was “stimulates CTL's”.

In the case of `NCCCC[C@@H](N)C(=O)N[C@@H](CC(N)=O)C(=O)N1CCC[C@H]1C(=O)N[C@@H](Cc1ccc(O)cc1)C(=O)O` [PEPTIDE #5, H-(D-Lys)-Asn-Pro-Tyr-OH] (H-[dK]NPY-OH), the “HPLC AREA” value ([4]; 0 min) is reported as 2471958, the “HPLC AREA” value ([4]; 5 min) is reported as 2362251.2 and the “HPLC AREA” value ([4]; 10 min) is reported as 2386700. For the same molecule, the “HPLC AREA” value ([4]; 15 min) was 2965610, the “HPLC AREA” value ([4]; 30 min) was 2038700.5 and the “HPLC AREA” value ([4]; 45 min) was 2186985.5. For the same molecule, the “HPLC AREA” value ([4]; 60 min) was 2194185.5, the “HPLC AREA” value ([4]; 75 min) was 2559208.5 and the “HPLC AREA” value ([4]; 90 min) was 2263081.5. For the same molecule, the half-life ([4]; rat, rat whole blood (EDTA), 37° C.) was > 1.5 h and the “CTL, % augmentation compared to IL-2 (IL-2 is 100%)” value ([3]; 10^-9 M) was “++++ (++++ represents 80% and over)”.
